Data taken from ChEMBL document CHEMBL1124616, “Hybrid cholecystokinin (CCK) antagonists: new implications in the design and modification of CCK antagonists” (J Med Chem, 1989).

Key:
[1] = organism: Cavia porcellus; assay: Compound was evaluated for the ability to inhibit CCK-stimulated amylase release in pancreatic acinar cells of guinea pig; assay type: functional
[2] = target: T1, Gastrin/cholecystokinin type B receptor (Cavia porcellus, UniProt H0VZC5); assay: Compound was evaluated for the binding affinity against Cholecystokinin type A receptor in cortical cells.; assay type: cell-based
[3] = target: T2, Cholecystokinin receptor type A (Cavia porcellus, UniProt Q63931); assay: Compound was evaluated for the binding affinity against Cholecystokinin type A receptor in pancreatic acinar cell
T2 sequence (Q63931 whole entry): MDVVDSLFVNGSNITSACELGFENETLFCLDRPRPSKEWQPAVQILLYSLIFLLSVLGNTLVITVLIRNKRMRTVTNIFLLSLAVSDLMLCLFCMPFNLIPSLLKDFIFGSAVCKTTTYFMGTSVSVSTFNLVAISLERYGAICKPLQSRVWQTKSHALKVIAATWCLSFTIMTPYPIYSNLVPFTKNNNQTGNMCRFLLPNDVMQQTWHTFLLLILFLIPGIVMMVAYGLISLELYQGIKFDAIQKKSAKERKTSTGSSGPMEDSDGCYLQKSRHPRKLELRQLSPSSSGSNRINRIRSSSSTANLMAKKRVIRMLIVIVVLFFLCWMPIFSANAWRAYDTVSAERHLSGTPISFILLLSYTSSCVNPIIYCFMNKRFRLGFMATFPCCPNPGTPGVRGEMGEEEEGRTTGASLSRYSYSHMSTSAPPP

[4] = target: T1, Gastrin/cholecystokinin type B receptor; assay: Compound was evaluated for the binding affinity against CCK A receptor in cortical cells.; assay type: cell-based
[5] = target: T2, Cholecystokinin receptor type A; assay: Compound was evaluated for the binding affinity against CCK A receptor in pancreatic acinar cell

T1 sequence (H0VZC5 1-426): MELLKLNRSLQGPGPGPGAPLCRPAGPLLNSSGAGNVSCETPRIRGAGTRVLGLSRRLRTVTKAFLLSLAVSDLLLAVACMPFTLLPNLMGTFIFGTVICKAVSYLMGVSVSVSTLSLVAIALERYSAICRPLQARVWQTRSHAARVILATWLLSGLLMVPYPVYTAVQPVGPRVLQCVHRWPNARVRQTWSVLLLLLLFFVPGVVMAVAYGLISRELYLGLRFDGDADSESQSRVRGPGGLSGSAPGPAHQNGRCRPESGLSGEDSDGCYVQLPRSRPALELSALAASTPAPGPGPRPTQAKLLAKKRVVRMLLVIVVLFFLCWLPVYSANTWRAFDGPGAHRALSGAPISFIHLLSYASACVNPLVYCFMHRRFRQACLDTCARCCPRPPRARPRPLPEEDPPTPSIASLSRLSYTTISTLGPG

Structure (SMILES)	IC50 [1]	IC50 [2]	IC50 [3]	IC50 [4]	IC50 [5]
CCCCCN(CCCCC)C(=O)[C@@H](CCC(=O)O)NC(=O)c1c[nH]c2ccccc12	0.83 µM	32 µM	–	–	–
CCCCCN(CCCCC)C(=O)[C@@H](CCC(=O)O)NC(=O)c1ccc2ccccc2n1	–	–	0.063 µM	–	–
CCCCCN(CCCCC)C(=O)[C@@H](CCC(=O)O)NC(=O)c1ccc2ccccc2c1 [AMIGLUMIDE]	0.036 µM	4.2 µM	0.012 µM	–	–
CCCCCN(CCCCC)C(=O)[C@@H](CCC(=O)O)NC(=O)c1cc2ccccc2[nH]1	0.036 µM	–	–	–	–
CCCCCN(CCCCC)C(=O)[C@@H](CCC(=O)O)NC(=O)c1ccc2ncccc2c1	0.065 µM	–	–	11 µM	0.031 µM
CCCCCN(CCCCC)C(=O)[C@@H](CCC(=O)O)NC(=O)c1cnc2ccccc2c1	0.016 µM	–	–	–	–
CCCCCN(CCCCC)C(=O)[C@H](CCC(=O)O)NC(=O)c1cc2ccccc2[nH]1	0.59 µM	–	–	–	–
CCCCCN(CCCCC)C(=O)[C@@H](CCC(=O)O)NC(=O)c1cccc2ccccc12	0.28 µM	11 µM	0.32 µM	–	–
CCCCCN(CCCCC)C(=O)[C@H](CCC(=O)O)NC(=O)c1ccc(Cl)c(Cl)c1	11 µM	–	–	–	4.9 µM
CCCCCN(CCCCC)C(=O)[C@@H](CCC(=O)O)NC(=O)c1ccc(Cl)c(Cl)c1	0.18 µM	–	–	–	–
